Data: ChEMBL document CHEMBL5154727, “Discovery of novel diphenylbutene derivative ferroptosis inhibitors as neuroprotective agents” (Eur J Med Chem, 2022)
pEC50: −log10 of the molar value. The source made the active and inactive calls. The rule behind the calls is not given here.

Assays:
[1] = Permeability of the compound in PBS/EtOH buffer (70:30) incubated for 10 hrs by UV plate reader based PAMPA-BBB assay; assay type: ADME; conditions: read-out: permeability
HT-22 [2] = experiment: Anti-ferroptotic activity against Erastin-induced ferroptosis in […] cells assessed as […] cell viability measured after 24 hrs by MTT assay; assay type: functional, cell-based; conditions: Mus musculus, HT-22, 24 h
HT-22 [3] = experiment: Cytotoxicity against […] cells at 40 uM; assay type: toxicity, cell-based; conditions: mouse, ht-22, 40 µM
HT-22 [4] = experiment: Anti-ferroptotic activity against Erastin-induced ferroptosis in […] cells assessed as […] cell viability measured after 24 hrs by MTT assay relative to control; assay type: functional, Mus musculus
HT-22 [5] = experiment: Anti-ferroptotic activity against RSL-3-induced morphological changes in […] cells assessed as retention of cell morphology at 1 uM measured after 24 hrs; assay type: functional, cell-based; conditions: Mus musculus
HT-22 [6] = experiment: Reduction in ROS accumulation in RSL-3 treated […] cells assessed as reduction in fluorescence intensity at 1 uM incubated for 4 hrs by C11-BODIPY staining based confocal laser scanning microscopic analysis; assay type: functional, cell-based; conditions: Mus musculus
HT-1080 [7] = experiment: Anti-ferroptotic activity against siRNA-mediated GPX4 knockdown induced ferroptosis in human HT-1080 cells at 1 uM preincubated for 12 hrs in Opti-MEM medium followed by compound addition and measured after 36 hrs; assay type: functional, cell-based
HT-22 [8] = experiment: Inhibition of RSL-3 induced Ptgs2 mRNA expression in […] cells measured after 4 hrs by quantitative PCR analysis; assay type: functional, cell-based; conditions: Mus musculus, dose 1.25-5 µM
[9] = Metal chelating activity assessed as compound-Fe3+ complex formation at 50 uM by UV-Vis spectroscopic analysis
[10] = Metal chelating activity assessed as compound-Fe2+ complex formation at 50 uM by UV-Vis spectroscopic analysis
HT-22 [11] = experiment: Anti-ferroptotic activity against RSL-3 induced ferroptosis in […] cells assessed as inhibition of cell death measured after 24 hrs by MTT assay; assay type: functional, cell-based; conditions: Mus musculus, HT-22, 24 h
HT-22 [12] = experiment: Reduction in ROS accumulation in RSL-3 treated […] cells assessed as reduction in fluorescence intensity at 5 uM incubated for 4 hrs by C11-BODIPY staining based confocal laser scanning microscopic analysis; assay type: functional, cell-based; conditions: Mus musculus
Rattus norvegicus [13] = experiment: Neuroprotective activity against middle cerebral artery occlusion-induced ischemia-reperfusion injury Sprague-Dawley rat model assessed as morphological changes at 20 mg/kg, ip measured after 24 hrs by H and E staining-based assay; assay type: functional, organism-based
HT-1080 [14] = experiment: Anti-ferroptotic activity against siRNA-mediated GPX4 knockdown induced ferroptosis in human HT-1080 cells at 5 uM preincubated for 12 hrs in Opti-MEM medium followed by compound addition and measured after 36 hrs; assay type: functional, cell-based
HT-22 [15] = experiment: Anti-ferroptotic activity against RSL-3-induced morphological changes in […] cells assessed as retention of cell morphology measured after 24 hrs; assay type: functional, cell-based; conditions: Mus musculus, dose 1.25-5 µM, DDE = dose-dependent effect
HT-22 [16] = experiment: Reduction in cytosolic ROS accumulation in RSL-3 treated […] cells incubated for 4 hrs by H2DCFDA fluorescent probe based flow cytometry method; assay type: functional, cell-based; conditions: Mus musculus, dose 1.25-5 µM, DDE = dose-dependent effect
HT-22 [17] = experiment: Effect on intracellular Fe2+ level in […] cells assessed as fluorescence intensity at 5 uM measured after 10 hrs by Hoechst/FerroOrange staining based confocal laser microscopy; assay type: functional, cell-based; conditions: Mus musculus
HT-22 [18] = experiment: Reduction in lipid ROS accumulation in RSL-3 treated […] cells incubated for 4 hrs by C11-BODIPY staining based flow cytometric analysis; assay type: functional, cell-based; conditions: Mus musculus, dose 1.25-5 µM, DDE = dose-dependent effect
Rattus norvegicus [19] = experiment: Neuroprotective activity against middle cerebral artery occlusion-induced ischemia-reperfusion injury Sprague-Dawley rat model assessed as reduction in neurobehavioral defects at 20 mg/kg, ip measured after 24 hrs by Longa test; assay type: functional, organism-based
HT-22 [20] = experiment: Upregulation of FSP1 protein level in […] cells assessed as increase in reduced to oxidized COQ10 ratio measured after 6 hrs by Western blot analysis; assay type: functional, cell-based; conditions: Mus musculus
Rattus norvegicus [21] = experiment: Neuroprotective activity against middle cerebral artery occlusion-induced ischemia-reperfusion injury Sprague-Dawley rat model assessed as reduction in MDA level at 20 mg/kg, ip measured after 24 hrs by TTC staining based assay; assay type: functional, organism-based
HT-22 [22] = experiment: Anti-ferroptotic activity against Erastin-induced ferroptosis in […] cells assessed as inhibition of cell death measured after 24 hrs by MTT assay; assay type: functional, cell-based; conditions: Mus musculus, HT-22, 24 h
Rattus norvegicus [23] = experiment: Neuroprotective activity against middle cerebral artery occlusion-induced ischemia-reperfusion injury Sprague-Dawley rat model assessed as morphological changes at 20 mg/kg, ip measured after 24 hrs by Nissl staining based assay; assay type: functional, organism-based
HT-22 [24] = experiment: Upregulation of FSP1 mRNA level in […] cells measured after 6 hrs by quantitative PCR analysis; assay type: functional, cell-based; conditions: Mus musculus, dose 1.25-5 µM
Rattus norvegicus [25] = experiment: Neuroprotective activity against middle cerebral artery occlusion-induced ischemia-reperfusion injury Sprague-Dawley rat model assessed as reduction in PTGS2 mRNA expression level at 20 mg/kg, ip measured after 24 hrs by TTC staining based assay; assay type: functional, organism-based
HT-22 [26] = experiment: Upregulation of FSP1 protein level in […] cells measured after 6 hrs by Western blot analysis; assay type: functional, cell-based; conditions: Mus musculus, dose 1.25-5 µM
Rattus norvegicus [27] = experiment: Neuroprotective activity against middle cerebral artery occlusion-induced ischemia-reperfusion injury Sprague-Dawley rat model assessed as reduction in infarct volume at 20 mg/kg, ip measured after 24 hrs by TTC staining based assay; assay type: functional, organism-based
Rattus norvegicus [28] = experiment: Neuroprotective activity against middle cerebral artery occlusion-induced ischemia-reperfusion injury Sprague-Dawley rat model assessed as reduction in 4-HNE level at 20 mg/kg, ip measured after 24 hrs by TTC staining based assay; assay type: functional, organism-based

## O=C(/C(=C/C=C/c1ccccc1)c1cccc(O)c1)N1CCN(c2ncccn2)CC1
[1]
  Papp at 10 h: 14.5 ×10⁻⁶ cm/s
HT-22 [2]
  pEC50: < 4.70

## COc1cccc(OC)c1/C=C/C=C(/C(=O)N1CCN(c2ncccn2)CC1)c1ccccc1
HT-22 [2]
  pEC50: < 4.70

## COc1ccc(/C=C/C=C(/C(=O)N2CCN(c3ncccn3)CC2)c2ccccc2)c(OC)c1
[1]
  Papp at 10 h: 18.9 ×10⁻⁶ cm/s
HT-22 [2]
  pEC50: < 4.70

## COc1ccccc1/C=C/C=C(/C(=O)N1CCN(c2ncccn2)CC1)c1ccccc1
[1]
  Papp at 10 h: 13.6 ×10⁻⁶ cm/s
HT-22 [2]
  pEC50: < 4.70

## O=C(/C(=C/C=C/c1ccc(O)cc1)c1ccccc1)N1CCN(c2ncccn2)CC1
HT-22 [3]
  Activity: Non-Toxic
[1]
  Papp at 10 h: 5.2 ×10⁻⁶ cm/s
HT-22 [4]
  Activity: 81.9%
HT-22 [2]
  pEC50: 4.92

## CCOC(=O)c1ccc(NC2CCCCC2)c(N)c1
HT-22 [5]
  Activity: Active
HT-22 [6]
  Activity: Active
HT-1080 [7]
  Activity: Active

## COc1ccc(/C=C/C=C(/C(=O)N2CCN(c3ncccn3)CC2)c2ccccc2)cc1
[1]
  Papp at 10 h: 15.7 ×10⁻⁶ cm/s
HT-22 [2]
  pEC50: < 4.70

## O=C(/C(=C/C=C/c1ccccc1)c1ccc(O)cc1)N1CCN(c2ncccn2)CC1
[1]
  Papp at 10 h: 8.3 ×10⁻⁶ cm/s
HT-22 [2]
  pEC50: < 4.70

## COC(=O)c1ccc([C@H]2c3[nH]c4ccccc4c3C[C@H](C(=O)OC)N2C(=O)CCl)cc1
HT-22 [8]
  inhibition: Active
HT-22 [6]
  Activity: Active

## COc1cc(/C=C/C=C(/C(=O)N2CCN(c3ncccn3)CC2)c2ccc(O)c(OC)c2)ccc1O
[1]
  Papp at 10 h: 5.3 ×10⁻⁶ cm/s
HT-22 [4]
  Activity: 79.5%
HT-22 [2]
  pEC50: 5.40

## CC(=O)N(O)CCCCCNC(=O)CCC(=O)N(O)CCCCCNC(=O)CCC(=O)N(O)CCCCCN
[9]
  Activity: Active
[10]
  Activity: Active

## COc1cc(/C(=C\C=C\c2ccccc2)C(=O)N2CCN(c3ncccn3)CC2)ccc1O
[1]
  Papp at 10 h: 10.2 ×10⁻⁶ cm/s
HT-22 [2]
  pEC50: < 4.70

## COc1cc(/C=C/C=C(/C(=O)N2CCN(c3ncccn3)CC2)c2ccccc2)ccc1O
HT-22 [8]; DDE = dose-dependent effect
  inhibition: Dde
HT-22 [11]
  pEC50: 5.77
HT-22 [12]
  Activity: Active
[1]
  Papp at 10 h: 15.3 ×10⁻⁶ cm/s
Rattus norvegicus [13]
  Activity: Active
HT-22 [4]
  Activity: 76.7%
HT-1080 [14]
  Activity: Active
HT-22 [15]
  Activity: Dde
HT-22 [2]
  pEC50: 5.77
HT-22 [16]
  Activity: Dde
HT-22 [17]
  Activity: Active
HT-22 [18]
  Activity: Dde
Rattus norvegicus [19]
  Activity: Active
HT-22 [20]
  Activity: Active
Rattus norvegicus [21]
  Activity: Active
HT-22 [22]
  pEC50: 5.77
Rattus norvegicus [23]
  Activity: Active
HT-22 [24]
  Activity: Active
Rattus norvegicus [25]
  Activity: Active
HT-22 [26]
  Activity: Active
Rattus norvegicus [27]
  Activity: Active
Rattus norvegicus [28]
  Activity: Active

## O=C(/C(=C/C=C/c1cccc(O)c1)c1ccccc1)N1CCN(c2ncccn2)CC1
[1]
  Papp at 10 h: 9.9 ×10⁻⁶ cm/s
HT-22 [2]
  pEC50: < 4.70

## COc1ccc(/C(=C\C=C\c2ccccc2)C(=O)N2CCN(c3ncccn3)CC2)cc1OC
[1]
  Papp at 10 h: 16.4 ×10⁻⁶ cm/s
HT-22 [2]
  pEC50: < 4.70

## COc1cccc(/C=C/C=C(/C(=O)N2CCN(c3ncccn3)CC2)c2ccccc2)c1
[1]
  Papp at 10 h: 10.2 ×10⁻⁶ cm/s
HT-22 [2]
  pEC50: < 4.70

## COc1cc(/C=C/C=C(/C(=O)N2CCN(c3ncccn3)CC2)c2cccc(O)c2)ccc1O
[1]
  Papp at 10 h: 5.2 ×10⁻⁶ cm/s
HT-22 [4]
  Activity: 84.2%
HT-22 [2]
  pEC50: 5.35
